# Experimental data published in publication PMC4774911, “Biochemical Screening of Five Protein Kinases from Plasmodium falciparum against 14,000 Cell-Active Compounds” (PLoS ONE, 2016).
# Several values for one entry are separate records, joined by “and”; a condition that tells them apart may be missing. Equal entries are not always repeated.
# Assays:
# Assay in all cases: biochemical
# [1] = target: T1, TEC (Homo sapiens, UniProt P42680)
# T1 sequence (P42680 1-631): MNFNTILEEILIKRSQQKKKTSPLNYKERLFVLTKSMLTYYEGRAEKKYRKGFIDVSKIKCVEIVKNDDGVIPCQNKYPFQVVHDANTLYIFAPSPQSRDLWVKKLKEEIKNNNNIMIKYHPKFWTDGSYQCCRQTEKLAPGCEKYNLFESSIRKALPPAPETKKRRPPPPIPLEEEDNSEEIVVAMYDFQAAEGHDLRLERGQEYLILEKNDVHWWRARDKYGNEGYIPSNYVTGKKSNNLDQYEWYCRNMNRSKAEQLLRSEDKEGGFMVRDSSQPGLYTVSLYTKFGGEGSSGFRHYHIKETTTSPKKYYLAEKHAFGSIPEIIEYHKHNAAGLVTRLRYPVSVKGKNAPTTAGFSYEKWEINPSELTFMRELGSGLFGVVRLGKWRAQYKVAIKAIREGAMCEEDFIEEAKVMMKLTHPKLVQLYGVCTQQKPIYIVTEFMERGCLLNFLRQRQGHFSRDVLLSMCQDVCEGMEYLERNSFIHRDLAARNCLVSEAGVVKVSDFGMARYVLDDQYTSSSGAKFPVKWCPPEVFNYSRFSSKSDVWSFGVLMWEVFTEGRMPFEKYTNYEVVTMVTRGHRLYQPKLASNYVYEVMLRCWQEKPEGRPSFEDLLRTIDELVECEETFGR
# [2] = target: FER (Homo sapiens, UniProt P16591)
# Chain of FER (P16591 whole entry): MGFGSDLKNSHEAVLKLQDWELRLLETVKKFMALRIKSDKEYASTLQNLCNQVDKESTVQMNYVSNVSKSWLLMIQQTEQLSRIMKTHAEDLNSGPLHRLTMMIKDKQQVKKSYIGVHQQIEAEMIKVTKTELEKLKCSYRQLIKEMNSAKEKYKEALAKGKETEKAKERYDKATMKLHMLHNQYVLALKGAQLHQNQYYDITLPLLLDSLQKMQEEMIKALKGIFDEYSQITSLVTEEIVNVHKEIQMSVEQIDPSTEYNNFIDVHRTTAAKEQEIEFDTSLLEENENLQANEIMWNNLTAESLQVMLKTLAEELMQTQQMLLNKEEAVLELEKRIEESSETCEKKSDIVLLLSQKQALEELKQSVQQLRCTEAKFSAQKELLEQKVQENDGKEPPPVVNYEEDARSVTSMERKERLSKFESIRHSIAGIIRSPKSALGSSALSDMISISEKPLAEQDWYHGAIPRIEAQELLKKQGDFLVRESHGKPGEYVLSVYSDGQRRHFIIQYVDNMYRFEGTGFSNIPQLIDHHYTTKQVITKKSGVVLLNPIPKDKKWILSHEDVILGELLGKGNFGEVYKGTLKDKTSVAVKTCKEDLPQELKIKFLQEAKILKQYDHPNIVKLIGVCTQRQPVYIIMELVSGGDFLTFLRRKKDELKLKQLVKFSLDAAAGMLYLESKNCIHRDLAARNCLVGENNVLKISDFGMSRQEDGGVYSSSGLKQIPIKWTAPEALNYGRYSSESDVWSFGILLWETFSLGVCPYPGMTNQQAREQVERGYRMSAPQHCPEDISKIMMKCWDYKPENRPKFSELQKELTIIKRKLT
# [3] = target: YES1 (Homo sapiens, UniProt P07947)
# Chain of YES1 (P07947 whole entry): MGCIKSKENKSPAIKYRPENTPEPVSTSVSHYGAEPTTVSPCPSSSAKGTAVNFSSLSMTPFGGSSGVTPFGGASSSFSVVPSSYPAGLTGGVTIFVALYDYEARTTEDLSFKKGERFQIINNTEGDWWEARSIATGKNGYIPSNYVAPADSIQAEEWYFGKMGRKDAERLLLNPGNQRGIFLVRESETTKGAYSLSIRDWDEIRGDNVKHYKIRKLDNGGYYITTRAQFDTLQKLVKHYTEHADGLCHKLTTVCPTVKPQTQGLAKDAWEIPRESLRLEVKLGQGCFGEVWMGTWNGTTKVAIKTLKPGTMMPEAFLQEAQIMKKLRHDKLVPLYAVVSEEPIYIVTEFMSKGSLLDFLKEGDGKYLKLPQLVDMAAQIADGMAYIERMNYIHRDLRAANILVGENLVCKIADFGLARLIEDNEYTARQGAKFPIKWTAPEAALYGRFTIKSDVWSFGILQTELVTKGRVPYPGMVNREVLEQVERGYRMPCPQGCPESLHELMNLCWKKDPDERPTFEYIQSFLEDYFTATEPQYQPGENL
# [4] = target: T2, MAP2K5 (Homo sapiens, UniProt Q13163)
# T2 sequence (Q13163 1-448): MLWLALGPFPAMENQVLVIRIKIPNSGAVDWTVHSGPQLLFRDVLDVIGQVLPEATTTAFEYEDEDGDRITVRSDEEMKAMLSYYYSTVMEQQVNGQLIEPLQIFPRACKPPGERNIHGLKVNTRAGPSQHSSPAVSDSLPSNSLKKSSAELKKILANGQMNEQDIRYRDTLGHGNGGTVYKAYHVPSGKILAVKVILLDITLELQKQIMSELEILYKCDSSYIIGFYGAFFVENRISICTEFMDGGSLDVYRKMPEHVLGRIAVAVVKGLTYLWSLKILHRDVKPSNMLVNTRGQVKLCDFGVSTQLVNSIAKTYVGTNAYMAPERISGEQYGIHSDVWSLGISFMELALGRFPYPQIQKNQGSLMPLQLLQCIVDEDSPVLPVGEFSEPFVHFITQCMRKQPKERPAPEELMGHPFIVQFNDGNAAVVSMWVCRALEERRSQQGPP
# [5] = target: STK16 (Homo sapiens, UniProt O75716)
# Chain of STK16 (O75716 whole entry): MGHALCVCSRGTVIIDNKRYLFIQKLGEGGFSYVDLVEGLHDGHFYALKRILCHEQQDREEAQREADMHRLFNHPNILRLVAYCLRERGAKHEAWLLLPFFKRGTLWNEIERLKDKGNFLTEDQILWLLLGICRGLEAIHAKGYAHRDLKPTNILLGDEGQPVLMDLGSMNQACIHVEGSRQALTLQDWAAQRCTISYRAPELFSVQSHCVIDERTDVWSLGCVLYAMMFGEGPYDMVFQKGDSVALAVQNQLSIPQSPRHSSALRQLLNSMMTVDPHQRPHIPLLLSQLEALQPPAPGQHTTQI
# [6] = target: CDK2 (Homo sapiens, UniProt P24941)
# [7] = target: JAK1 (Homo sapiens, UniProt P23458)
# Chain of JAK1 (P23458 whole entry): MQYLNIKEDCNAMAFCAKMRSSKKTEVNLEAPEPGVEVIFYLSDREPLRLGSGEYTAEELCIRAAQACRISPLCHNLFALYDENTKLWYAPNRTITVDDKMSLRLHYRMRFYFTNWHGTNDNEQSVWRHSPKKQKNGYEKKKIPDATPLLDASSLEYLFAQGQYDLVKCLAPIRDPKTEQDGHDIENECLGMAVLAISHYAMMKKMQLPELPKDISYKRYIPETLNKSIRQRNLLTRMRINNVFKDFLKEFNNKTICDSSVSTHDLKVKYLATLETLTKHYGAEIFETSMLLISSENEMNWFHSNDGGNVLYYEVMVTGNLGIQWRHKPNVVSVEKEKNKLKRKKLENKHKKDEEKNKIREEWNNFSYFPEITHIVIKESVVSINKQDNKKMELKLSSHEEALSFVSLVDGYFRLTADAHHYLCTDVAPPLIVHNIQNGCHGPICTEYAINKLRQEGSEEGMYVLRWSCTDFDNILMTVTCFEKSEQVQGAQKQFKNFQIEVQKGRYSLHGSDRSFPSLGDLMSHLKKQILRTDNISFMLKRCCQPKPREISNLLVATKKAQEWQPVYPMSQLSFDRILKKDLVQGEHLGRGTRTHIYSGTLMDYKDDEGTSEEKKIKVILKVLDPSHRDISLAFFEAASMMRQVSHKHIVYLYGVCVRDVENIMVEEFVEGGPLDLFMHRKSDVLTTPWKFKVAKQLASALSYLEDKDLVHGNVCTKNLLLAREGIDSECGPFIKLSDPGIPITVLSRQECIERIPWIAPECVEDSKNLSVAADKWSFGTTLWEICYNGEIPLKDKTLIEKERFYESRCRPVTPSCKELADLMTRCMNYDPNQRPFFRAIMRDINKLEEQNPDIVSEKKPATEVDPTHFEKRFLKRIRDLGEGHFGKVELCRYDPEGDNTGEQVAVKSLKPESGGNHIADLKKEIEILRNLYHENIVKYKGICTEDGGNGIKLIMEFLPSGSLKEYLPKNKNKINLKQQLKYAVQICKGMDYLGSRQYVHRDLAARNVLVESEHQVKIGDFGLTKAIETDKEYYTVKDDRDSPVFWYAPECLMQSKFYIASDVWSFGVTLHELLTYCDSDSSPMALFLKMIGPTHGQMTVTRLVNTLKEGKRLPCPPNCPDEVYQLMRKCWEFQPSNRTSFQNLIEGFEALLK
# [8] = target: T3, TBK1 (Homo sapiens, UniProt Q9UHD2)
# T3 sequence (Q9UHD2 1-729): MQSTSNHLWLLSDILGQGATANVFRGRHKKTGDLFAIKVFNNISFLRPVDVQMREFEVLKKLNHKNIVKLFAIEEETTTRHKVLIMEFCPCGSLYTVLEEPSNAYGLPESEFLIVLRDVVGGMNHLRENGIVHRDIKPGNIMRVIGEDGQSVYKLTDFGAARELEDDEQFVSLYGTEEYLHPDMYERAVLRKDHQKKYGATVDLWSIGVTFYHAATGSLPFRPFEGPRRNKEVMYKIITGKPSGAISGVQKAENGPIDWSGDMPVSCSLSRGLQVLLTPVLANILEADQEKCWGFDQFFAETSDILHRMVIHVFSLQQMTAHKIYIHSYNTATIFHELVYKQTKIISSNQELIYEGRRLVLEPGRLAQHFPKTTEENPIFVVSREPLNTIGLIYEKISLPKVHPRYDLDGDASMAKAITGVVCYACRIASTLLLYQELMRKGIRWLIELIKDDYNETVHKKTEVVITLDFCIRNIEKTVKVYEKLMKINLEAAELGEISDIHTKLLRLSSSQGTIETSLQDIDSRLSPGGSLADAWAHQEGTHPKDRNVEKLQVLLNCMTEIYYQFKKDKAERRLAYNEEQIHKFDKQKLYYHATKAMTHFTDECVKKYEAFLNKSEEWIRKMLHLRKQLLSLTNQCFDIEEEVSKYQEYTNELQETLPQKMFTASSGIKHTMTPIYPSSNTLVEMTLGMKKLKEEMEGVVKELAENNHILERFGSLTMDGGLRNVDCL
smiles,measurement,setting,value
CN1CCN(c2ccc(Nc3ncc(C#N)c(Nc4ccccc4C(N)=O)n3)cc2)CC1.Cl [TCMDC-134116],IC50,[1],460 nM and 490 nM
same,IC50,[2],220 nM and 210 nM
same,IC50,[3],120 nM and 150 nM
same,IC50,[4],400 nM and 520 nM
same,IC50,[5],270 nM and 380 nM
same,IC50,[6],360 nM and 350 nM
same,IC50,[7],53 nM and 79 nM
same,IC50,[8],530 nM and 510 nM
Cl.NCC1(c2nc(-c3ccc(Cl)c(O)c3)c(-c3ccncc3)[nH]2)CCCCC1 [TCMDC-141154],IC50,[1],> 20000 nM
same,IC50,[2],> 20000 nM
same,IC50,[3],4400 nM and 7700 nM
same,IC50,[4],880 nM
same,IC50,[5],> 20000 nM
same,IC50,[6],> 20000 nM
same,IC50,[7],> 20000 nM
same,IC50,[8],> 20000 nM
CN(C)CC(O)COc1ccc(Nc2ncc([N+](=O)[O-])c(Nc3ccccc3O)n2)cc1.O=C(O)C(F)(F)F (stereo not drawn) [TCMDC-141399],IC50,[1],> 20000 nM
same,IC50,[2],930 nM and 810 nM
same,IC50,[3],> 20000 nM
same,IC50,[4],> 20000 nM
same,IC50,[5],1100 nM
same,IC50,[6],> 20000 nM
same,IC50,[7],1100 nM and 1400 nM
same,IC50,[8],> 20000 nM
